Reference: ChEMBL document CHEMBL4507317, “Data for DCP probe BAY-899” (2021)

Experiments:
[1] = biological target: Dual specificity tyrosine-phosphorylation-regulated kinase 2 (Homo sapiens) (UniProt Q92630); conditions: Compound concentration 1000.0 nM
[2] = biological target: Phosphatidylinositol 4-kinase beta (Homo sapiens) (UniProt Q9UBF8); conditions: Compound concentration 1000.0 nM
[3] = biological target: 5-hydroxytryptamine receptor 3A (Homo sapiens) (UniProt P46098); conditions: Compound concentration 10.0 uM
[4] = biological target: Mitogen-activated protein kinase 9 (Homo sapiens) (UniProt P45984); conditions: Compound concentration 1000.0 nM
[5] = biological target: Myosin light chain kinase family member 4 (Homo sapiens) (UniProt Q86YV6); conditions: Compound concentration 1000.0 nM
[6] = biological target: Serine/threonine-protein kinase haspin (Homo sapiens) (UniProt Q8TF76); conditions: Compound concentration 1000.0 nM
[7] = biological target: Ribosomal protein S6 kinase alpha-6 (Homo sapiens) (UniProt Q9UK32); conditions: Compound concentration 1000.0 nM
[8] = biological target: Cyclin-dependent kinase 15 (Homo sapiens) (UniProt Q96Q40); conditions: Compound concentration 1000.0 nM
[9] = system: Receptor-type tyrosine-protein kinase FLT3 (Homo sapiens), P36888 [R834Q]; conditions: Compound concentration 1000.0 nM
[10] = biological target: Serine/threonine-protein kinase SIK2 (Homo sapiens) (UniProt Q9H0K1); conditions: Compound concentration 1000.0 nM
[11] = biological target: Serine/threonine-protein kinase pim-2 (Homo sapiens) (UniProt Q9P1W9); conditions: Compound concentration 1000.0 nM
[12] = biological target: Tyrosine-protein kinase receptor Tie-1 (Homo sapiens) (UniProt P35590); conditions: Compound concentration 1000.0 nM
[13] = biological target: Interleukin-1 receptor-associated kinase 3 (Homo sapiens) (UniProt Q9Y616); conditions: Compound concentration 1000.0 nM
[14] = biological target: Ephrin type-A receptor 1 (Homo sapiens) (UniProt P21709); conditions: Compound concentration 1000.0 nM
[15] = biological target: Serine/threonine-protein kinase Nek11 (Homo sapiens) (UniProt Q8NG66); conditions: Compound concentration 1000.0 nM
[16] = biological target: Serine/threonine-protein kinase Nek4 (Homo sapiens) (UniProt P51957); conditions: Compound concentration 1000.0 nM
[17] = system: Leucine-rich repeat serine/threonine-protein kinase 2 (Homo sapiens), Q5S007 [G2019S]; conditions: Compound concentration 1000.0 nM
[18] = biological target: Serine/threonine-protein kinase TAO3 (Homo sapiens) (UniProt Q9H2K8); conditions: Compound concentration 1000.0 nM
[19] = biological target: Serine/threonine-protein kinase 32B (Homo sapiens) (UniProt Q9NY57); conditions: Compound concentration 1000.0 nM
[20] = system: Phosphatidylinositol 4,5-bisphosphate 3-kinase catalytic subunit alpha isoform (Homo sapiens), P42336 [I800L]; conditions: Compound concentration 1000.0 nM
[21] = biological target: Mitogen-activated protein kinase kinase kinase kinase 1 (Homo sapiens) (UniProt Q92918); conditions: Compound concentration 1000.0 nM
[22] = biological target: Discoidin domain-containing receptor 2 (Homo sapiens) (UniProt Q16832); conditions: Compound concentration 1000.0 nM
[23] = biological target: Dual serine/threonine and tyrosine protein kinase (Homo sapiens) (UniProt Q6XUX3); conditions: Compound concentration 1000.0 nM
[24] = biological target: Cyclin-dependent kinase 2 homolog (Plasmodium falciparum (isolate 3D7)) (UniProt P61075); conditions: Compound concentration 1000.0 nM
[25] = biological target: Cyclin-dependent kinase-like 5 (Homo sapiens) (UniProt O76039); conditions: Compound concentration 1000.0 nM
[26] = biological target: Myosin light chain kinase (Homo sapiens) (UniProt Q32MK0); conditions: Compound concentration 1000.0 nM
[27] = biological target: Cyclin-dependent kinase 14 (Homo sapiens) (UniProt O94921); conditions: Compound concentration 1000.0 nM
[28] = biological target: T1, Muscarinic acetylcholine receptor M4 (Homo sapiens) (UniProt P08173); conditions: Compound concentration 10.0 uM
T1 sequence (whole entry): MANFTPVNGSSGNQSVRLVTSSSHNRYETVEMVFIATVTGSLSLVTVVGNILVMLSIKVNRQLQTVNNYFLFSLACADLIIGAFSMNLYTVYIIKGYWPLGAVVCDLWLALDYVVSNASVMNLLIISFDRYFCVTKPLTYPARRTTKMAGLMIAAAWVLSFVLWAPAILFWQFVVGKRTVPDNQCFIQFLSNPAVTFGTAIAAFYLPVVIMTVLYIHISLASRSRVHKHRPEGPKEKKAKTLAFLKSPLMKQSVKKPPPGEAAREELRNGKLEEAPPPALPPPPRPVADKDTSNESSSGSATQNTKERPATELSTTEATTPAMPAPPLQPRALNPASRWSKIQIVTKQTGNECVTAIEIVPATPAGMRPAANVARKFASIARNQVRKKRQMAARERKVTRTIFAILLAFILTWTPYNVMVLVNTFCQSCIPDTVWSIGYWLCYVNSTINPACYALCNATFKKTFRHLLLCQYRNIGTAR

[29] = biological target: Fibroblast growth factor receptor 1 (Homo sapiens) (UniProt P11362); conditions: Compound concentration 1000.0 nM
[30] = biological target: Mitogen-activated protein kinase kinase kinase 5 (Homo sapiens) (UniProt Q99683); conditions: Compound concentration 1000.0 nM
[31] = biological target: Serine/threonine-protein kinase ULK1 (Homo sapiens) (UniProt O75385); conditions: Compound concentration 1000.0 nM
[32] = biological target: Serine/threonine-protein kinase PLK2 (Homo sapiens) (UniProt Q9NYY3); conditions: Compound concentration 1000.0 nM
[33] = biological target: D(1B) dopamine receptor (Homo sapiens) (UniProt P21918); conditions: Compound concentration 10.0 uM
[34] = biological target: Dual specificity protein kinase CLK3 (Homo sapiens) (UniProt P49761); conditions: Compound concentration 1000.0 nM
[35] = biological target: Serine/threonine-protein kinase TAO1 (Homo sapiens) (UniProt Q7L7X3); conditions: Compound concentration 1000.0 nM
[36] = biological target: Dual specificity mitogen-activated protein kinase kinase 6 (Homo sapiens) (UniProt P52564); conditions: Compound concentration 1000.0 nM
[37] = biological target: Phosphatidylinositol 5-phosphate 4-kinase type-2 beta (Homo sapiens) (UniProt P78356); conditions: Compound concentration 1000.0 nM
[38] = biological target: Rhodopsin kinase GRK1 (Homo sapiens) (UniProt Q15835); conditions: Compound concentration 1000.0 nM

Chain of Dual specificity protein kinase CLK3 (Homo sapiens) (P49761 whole entry, looked up): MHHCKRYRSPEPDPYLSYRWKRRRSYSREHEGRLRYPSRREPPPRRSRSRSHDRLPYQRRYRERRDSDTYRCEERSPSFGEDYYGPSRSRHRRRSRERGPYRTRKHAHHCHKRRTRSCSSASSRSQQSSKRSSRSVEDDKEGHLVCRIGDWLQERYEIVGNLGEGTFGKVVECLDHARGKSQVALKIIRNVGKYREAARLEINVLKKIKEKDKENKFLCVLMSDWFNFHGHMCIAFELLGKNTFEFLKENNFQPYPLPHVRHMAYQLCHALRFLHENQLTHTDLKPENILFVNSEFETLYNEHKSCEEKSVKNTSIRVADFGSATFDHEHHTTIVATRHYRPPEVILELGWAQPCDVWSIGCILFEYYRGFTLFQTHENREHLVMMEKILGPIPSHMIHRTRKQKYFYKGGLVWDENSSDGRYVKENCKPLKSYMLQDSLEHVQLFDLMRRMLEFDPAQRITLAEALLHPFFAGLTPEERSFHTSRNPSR
Chain of Cyclin-dependent kinase 14 (Homo sapiens) (O94921 whole entry): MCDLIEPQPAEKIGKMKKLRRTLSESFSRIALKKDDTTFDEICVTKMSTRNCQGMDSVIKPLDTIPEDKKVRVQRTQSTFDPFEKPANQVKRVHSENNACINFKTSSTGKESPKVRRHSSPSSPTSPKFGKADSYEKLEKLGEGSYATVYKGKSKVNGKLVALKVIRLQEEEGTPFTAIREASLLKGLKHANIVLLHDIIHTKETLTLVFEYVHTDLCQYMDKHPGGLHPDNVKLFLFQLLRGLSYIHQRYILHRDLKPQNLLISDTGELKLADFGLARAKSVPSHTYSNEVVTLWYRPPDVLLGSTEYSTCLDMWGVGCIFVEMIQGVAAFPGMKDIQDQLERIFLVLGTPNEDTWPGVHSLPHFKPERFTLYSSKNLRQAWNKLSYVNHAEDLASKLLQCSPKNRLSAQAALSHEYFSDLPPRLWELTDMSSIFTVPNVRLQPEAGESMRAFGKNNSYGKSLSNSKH
Chain of Phosphatidylinositol 5-phosphate 4-kinase type-2 beta (Homo sapiens) (P78356 whole entry): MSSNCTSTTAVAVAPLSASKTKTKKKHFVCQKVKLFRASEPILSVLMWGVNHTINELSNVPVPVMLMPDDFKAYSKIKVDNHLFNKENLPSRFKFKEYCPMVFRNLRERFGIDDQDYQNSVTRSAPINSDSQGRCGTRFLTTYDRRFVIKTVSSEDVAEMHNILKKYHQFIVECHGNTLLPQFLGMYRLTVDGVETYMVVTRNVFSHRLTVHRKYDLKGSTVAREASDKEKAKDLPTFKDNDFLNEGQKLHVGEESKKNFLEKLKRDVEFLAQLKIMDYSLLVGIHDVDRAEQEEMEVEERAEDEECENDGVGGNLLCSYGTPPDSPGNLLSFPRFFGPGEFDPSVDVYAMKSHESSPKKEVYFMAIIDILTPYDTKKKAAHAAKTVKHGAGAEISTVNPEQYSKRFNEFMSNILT
Chain of Cyclin-dependent kinase-like 5 (Homo sapiens) (O76039 whole entry): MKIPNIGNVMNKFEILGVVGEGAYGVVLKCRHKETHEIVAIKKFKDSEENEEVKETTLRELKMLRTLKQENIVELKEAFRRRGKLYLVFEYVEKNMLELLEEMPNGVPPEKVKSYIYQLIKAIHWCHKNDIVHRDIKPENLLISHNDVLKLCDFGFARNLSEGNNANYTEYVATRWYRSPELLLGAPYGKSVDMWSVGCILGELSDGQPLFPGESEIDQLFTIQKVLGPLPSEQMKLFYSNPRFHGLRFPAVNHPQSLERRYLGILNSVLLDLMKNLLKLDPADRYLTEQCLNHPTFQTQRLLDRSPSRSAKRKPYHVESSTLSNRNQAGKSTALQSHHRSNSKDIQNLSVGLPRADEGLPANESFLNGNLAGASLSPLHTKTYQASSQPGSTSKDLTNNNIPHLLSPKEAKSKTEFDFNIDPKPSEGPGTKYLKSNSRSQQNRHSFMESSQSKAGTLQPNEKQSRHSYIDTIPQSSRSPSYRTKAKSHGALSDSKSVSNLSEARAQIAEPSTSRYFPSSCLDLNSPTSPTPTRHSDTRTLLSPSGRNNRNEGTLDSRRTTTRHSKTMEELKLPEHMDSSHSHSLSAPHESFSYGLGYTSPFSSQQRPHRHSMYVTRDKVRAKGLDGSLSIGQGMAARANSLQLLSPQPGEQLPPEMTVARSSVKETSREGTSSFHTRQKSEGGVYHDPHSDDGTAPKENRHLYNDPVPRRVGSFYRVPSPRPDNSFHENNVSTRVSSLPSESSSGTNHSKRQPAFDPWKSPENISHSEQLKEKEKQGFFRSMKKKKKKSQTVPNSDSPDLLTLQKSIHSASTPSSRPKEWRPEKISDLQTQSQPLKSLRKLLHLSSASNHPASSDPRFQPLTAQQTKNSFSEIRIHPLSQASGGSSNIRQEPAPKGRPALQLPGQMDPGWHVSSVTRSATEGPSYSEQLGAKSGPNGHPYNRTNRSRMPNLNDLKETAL
Chain of Ribosomal protein S6 kinase alpha-6 (Homo sapiens) (Q9UK32 whole entry): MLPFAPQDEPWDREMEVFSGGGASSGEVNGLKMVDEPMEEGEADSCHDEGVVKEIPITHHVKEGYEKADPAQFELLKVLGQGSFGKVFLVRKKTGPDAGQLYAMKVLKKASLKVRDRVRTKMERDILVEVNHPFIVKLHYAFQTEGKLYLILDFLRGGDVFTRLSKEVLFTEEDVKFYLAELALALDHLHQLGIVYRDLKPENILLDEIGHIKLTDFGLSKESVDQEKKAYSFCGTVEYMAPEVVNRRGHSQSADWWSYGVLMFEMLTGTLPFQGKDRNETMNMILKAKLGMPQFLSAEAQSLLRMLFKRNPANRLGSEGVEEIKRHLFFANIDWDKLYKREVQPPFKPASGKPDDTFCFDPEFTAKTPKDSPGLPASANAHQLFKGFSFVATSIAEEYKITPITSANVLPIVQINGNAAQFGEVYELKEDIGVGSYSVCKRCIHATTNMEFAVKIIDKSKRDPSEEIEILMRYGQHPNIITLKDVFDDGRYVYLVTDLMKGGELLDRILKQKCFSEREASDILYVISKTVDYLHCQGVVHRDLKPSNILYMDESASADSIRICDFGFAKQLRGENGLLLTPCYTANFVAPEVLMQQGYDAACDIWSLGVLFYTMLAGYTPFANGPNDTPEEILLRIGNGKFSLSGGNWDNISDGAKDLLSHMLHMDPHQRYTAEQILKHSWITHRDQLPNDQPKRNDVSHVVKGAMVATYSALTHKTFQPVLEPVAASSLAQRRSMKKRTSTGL
Chain of Interleukin-1 receptor-associated kinase 3 (Homo sapiens) (Q9Y616 whole entry): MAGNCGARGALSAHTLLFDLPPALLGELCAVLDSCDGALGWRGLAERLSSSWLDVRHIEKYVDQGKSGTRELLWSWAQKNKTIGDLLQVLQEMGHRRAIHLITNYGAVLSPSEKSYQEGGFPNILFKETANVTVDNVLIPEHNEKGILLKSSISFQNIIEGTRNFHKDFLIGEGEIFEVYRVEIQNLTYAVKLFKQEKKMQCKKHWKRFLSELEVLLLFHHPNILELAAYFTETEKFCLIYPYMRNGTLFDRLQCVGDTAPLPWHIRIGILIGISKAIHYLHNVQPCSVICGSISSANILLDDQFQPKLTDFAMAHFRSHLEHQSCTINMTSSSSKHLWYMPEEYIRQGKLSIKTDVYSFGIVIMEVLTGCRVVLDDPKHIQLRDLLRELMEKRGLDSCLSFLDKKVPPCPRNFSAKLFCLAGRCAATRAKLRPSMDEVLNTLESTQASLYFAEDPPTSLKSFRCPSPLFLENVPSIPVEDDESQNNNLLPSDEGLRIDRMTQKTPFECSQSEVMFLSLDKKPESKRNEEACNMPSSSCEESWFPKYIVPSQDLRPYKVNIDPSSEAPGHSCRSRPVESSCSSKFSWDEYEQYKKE
Chain of Myosin light chain kinase family member 4 (Homo sapiens) (Q86YV6 whole entry): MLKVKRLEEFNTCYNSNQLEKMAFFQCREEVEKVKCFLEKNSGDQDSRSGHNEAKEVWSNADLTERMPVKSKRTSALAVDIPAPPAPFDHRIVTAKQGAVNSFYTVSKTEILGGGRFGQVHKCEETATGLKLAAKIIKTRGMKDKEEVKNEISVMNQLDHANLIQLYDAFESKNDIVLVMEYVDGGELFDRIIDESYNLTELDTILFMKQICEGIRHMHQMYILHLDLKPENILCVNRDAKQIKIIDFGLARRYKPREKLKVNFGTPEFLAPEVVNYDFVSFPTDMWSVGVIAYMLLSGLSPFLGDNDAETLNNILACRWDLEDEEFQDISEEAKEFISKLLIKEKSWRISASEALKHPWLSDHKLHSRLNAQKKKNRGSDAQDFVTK
Chain of Serine/threonine-protein kinase SIK2 (Homo sapiens) (Q9H0K1 whole entry, looked up): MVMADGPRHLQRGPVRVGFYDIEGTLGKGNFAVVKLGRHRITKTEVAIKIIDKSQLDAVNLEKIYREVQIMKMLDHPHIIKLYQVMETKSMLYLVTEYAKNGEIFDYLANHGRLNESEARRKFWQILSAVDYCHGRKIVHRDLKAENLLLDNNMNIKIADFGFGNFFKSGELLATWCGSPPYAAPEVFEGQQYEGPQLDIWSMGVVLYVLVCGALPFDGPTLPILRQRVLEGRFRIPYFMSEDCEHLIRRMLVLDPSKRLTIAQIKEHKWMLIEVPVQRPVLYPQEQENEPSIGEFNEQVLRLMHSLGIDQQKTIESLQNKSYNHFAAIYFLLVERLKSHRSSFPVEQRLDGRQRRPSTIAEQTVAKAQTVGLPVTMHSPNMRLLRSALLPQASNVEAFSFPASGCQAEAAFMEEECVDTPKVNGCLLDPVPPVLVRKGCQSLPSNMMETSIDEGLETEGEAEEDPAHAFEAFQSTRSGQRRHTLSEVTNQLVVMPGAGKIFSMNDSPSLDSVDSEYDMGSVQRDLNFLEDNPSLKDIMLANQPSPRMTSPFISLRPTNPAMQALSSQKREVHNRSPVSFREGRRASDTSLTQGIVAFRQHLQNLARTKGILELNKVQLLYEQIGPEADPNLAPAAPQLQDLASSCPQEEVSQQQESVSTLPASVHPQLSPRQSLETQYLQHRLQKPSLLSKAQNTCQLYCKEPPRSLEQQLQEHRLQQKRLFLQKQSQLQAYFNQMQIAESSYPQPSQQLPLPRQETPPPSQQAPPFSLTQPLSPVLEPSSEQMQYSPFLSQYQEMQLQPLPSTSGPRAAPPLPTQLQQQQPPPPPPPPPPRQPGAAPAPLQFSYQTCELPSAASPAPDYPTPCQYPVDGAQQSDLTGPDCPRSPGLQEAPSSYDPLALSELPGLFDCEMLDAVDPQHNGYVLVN

O=C(Nc1ccc(Oc2ccc(F)cc2)cc1)N1CCc2ncccc2[C@H]1c1ccc(F)cc1 [BAY-897]
inactive: residual activity [1] 84% | residual activity [2] 75% | inhibition [3] 4.7% | residual activity [4] 88% | residual activity [5] 97% | residual activity [6] 85% | residual activity [7] 91% | residual activity [8] 86% | residual activity [9] 97% | residual activity [10] 100% | residual activity [11] 93% | residual activity [12] 85% | residual activity [13] 100% | residual activity [14] 100% | residual activity [15] 100% | residual activity [16] 94% | residual activity [17] 100% | residual activity [18] 92% | residual activity [19] 72% | residual activity [20] 66% | residual activity [21] 100% | residual activity [22] 100% | residual activity [23] 100% | residual activity [24] 87% | residual activity [25] 100% | residual activity [26] 80% | residual activity [27] 94% | inhibition [28] 9.29% | residual activity [29] 100% | residual activity [30] 87% | residual activity [31] 89% | residual activity [32] 100% | inhibition [33] 29.1% | residual activity [34] 82% | residual activity [35] 100% | residual activity [36] 100% | residual activity [37] 97% | residual activity [38] 91%

O=C(Nc1cnc(Oc2ccc(F)cc2)nc1)N1CCc2ncccc2[C@@H]1c1ccc(F)cc1 [BAY-899]
inactive: residual activity [1] 81% | residual activity [2] 89% | inhibition [3] 45.8% | residual activity [4] 85% | residual activity [5] 88% | residual activity [6] 93% | residual activity [7] 100% | residual activity [8] 93% | residual activity [9] 99% | residual activity [10] 89% | residual activity [11] 94% | residual activity [12] 88% | residual activity [13] 100% | residual activity [14] 100% | residual activity [15] 100% | residual activity [16] 79% | residual activity [17] 100% | residual activity [18] 100% | residual activity [19] 87% | residual activity [20] 69% | residual activity [21] 100% | residual activity [22] 100% | residual activity [23] 100% | residual activity [24] 100% | residual activity [25] 89% | residual activity [26] 89% | residual activity [27] 100% | inhibition [28] 22.8% | residual activity [29] 82% | residual activity [30] 84% | residual activity [31] 88% | residual activity [32] 100% | inhibition [33] 10.1% | residual activity [34] 88% | residual activity [35] 100% | residual activity [36] 77% | residual activity [37] 100% | residual activity [38] 91%
